Columns and labels:
[1] = target: Serine/threonine-protein kinase pim-2 (Homo sapiens, UniProt Q9P1W9); assay: Selectivity interaction (KinomeScan (DiscoverX)) EUB0000092b PIM2; conditions: at 10 µM
[2] = target: T1, Mitogen-activated protein kinase kinase kinase 6 (Homo sapiens) (UniProt O95382); assay: Selectivity interaction (KinomeScan (DiscoverX)) EUB0000618a MAP3K6; conditions: at 10 µM
T1 sequence (whole entry): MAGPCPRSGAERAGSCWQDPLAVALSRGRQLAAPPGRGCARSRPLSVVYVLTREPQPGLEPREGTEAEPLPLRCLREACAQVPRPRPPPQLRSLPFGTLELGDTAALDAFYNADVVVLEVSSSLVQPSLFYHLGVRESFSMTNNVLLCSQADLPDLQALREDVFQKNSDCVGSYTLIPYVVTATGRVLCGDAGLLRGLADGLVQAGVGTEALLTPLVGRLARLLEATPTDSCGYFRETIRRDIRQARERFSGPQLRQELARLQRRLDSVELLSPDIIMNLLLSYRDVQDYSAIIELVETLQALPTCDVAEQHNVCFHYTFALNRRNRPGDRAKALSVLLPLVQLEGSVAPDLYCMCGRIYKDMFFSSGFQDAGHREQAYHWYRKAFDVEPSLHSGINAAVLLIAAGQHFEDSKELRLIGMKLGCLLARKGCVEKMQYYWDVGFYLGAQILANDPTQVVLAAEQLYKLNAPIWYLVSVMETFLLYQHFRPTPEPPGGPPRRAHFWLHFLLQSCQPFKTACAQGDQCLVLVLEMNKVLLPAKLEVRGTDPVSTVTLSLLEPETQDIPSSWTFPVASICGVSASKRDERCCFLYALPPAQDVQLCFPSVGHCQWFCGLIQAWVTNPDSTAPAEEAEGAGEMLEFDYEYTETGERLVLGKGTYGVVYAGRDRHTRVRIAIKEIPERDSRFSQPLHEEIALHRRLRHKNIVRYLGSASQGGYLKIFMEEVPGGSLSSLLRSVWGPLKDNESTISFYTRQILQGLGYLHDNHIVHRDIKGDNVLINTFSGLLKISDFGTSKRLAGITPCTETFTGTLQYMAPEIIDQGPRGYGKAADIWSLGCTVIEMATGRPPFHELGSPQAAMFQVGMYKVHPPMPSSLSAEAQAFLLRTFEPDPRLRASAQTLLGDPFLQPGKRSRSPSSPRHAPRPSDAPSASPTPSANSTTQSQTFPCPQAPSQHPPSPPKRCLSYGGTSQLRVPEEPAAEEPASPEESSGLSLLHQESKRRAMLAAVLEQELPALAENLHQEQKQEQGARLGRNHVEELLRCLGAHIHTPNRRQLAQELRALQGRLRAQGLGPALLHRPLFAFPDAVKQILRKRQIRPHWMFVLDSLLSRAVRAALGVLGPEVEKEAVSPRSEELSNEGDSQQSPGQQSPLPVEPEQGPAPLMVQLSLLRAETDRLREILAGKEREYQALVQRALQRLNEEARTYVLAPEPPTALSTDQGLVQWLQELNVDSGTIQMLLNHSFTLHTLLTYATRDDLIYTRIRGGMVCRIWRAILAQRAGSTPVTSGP

[3] = target: T2, NUAK family SNF1-like kinase 1 (Homo sapiens) (UniProt O60285); assay: Selectivity interaction (KinomeScan (DiscoverX)) EUB0000655a NUAK1; conditions: at 10 µM
T2 sequence (whole entry): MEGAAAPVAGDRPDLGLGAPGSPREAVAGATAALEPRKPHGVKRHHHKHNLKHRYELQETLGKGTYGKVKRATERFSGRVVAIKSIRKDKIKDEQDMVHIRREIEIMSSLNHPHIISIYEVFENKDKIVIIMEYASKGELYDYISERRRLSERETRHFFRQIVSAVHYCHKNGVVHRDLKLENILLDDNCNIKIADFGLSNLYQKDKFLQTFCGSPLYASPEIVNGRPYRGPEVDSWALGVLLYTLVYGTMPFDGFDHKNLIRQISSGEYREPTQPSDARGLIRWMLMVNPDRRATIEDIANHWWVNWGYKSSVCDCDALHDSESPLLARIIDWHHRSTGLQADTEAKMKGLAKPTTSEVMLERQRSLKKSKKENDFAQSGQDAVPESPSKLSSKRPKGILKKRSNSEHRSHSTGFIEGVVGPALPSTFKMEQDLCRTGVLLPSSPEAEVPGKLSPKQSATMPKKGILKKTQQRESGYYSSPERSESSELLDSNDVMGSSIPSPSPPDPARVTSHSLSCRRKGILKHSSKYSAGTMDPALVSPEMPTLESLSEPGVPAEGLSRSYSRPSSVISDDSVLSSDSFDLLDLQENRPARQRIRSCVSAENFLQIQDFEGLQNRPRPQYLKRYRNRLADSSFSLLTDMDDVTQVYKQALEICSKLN

[4] = target: Ribosomal protein S6 kinase alpha-4 (Homo sapiens) (UniProt O75676); assay: Selectivity interaction (KinomeScan (DiscoverX)) EUB0000695a RPS6KA4; conditions: at 100 nM
[5] = target: Leukocyte tyrosine kinase receptor (Homo sapiens, UniProt P29376); assay: Selectivity interaction (Kinase panel (Z-LYTE Assay)) EUB0001632a LTK; conditions: at 10 µM
Sequence of Leukocyte tyrosine kinase receptor (P29376 whole entry): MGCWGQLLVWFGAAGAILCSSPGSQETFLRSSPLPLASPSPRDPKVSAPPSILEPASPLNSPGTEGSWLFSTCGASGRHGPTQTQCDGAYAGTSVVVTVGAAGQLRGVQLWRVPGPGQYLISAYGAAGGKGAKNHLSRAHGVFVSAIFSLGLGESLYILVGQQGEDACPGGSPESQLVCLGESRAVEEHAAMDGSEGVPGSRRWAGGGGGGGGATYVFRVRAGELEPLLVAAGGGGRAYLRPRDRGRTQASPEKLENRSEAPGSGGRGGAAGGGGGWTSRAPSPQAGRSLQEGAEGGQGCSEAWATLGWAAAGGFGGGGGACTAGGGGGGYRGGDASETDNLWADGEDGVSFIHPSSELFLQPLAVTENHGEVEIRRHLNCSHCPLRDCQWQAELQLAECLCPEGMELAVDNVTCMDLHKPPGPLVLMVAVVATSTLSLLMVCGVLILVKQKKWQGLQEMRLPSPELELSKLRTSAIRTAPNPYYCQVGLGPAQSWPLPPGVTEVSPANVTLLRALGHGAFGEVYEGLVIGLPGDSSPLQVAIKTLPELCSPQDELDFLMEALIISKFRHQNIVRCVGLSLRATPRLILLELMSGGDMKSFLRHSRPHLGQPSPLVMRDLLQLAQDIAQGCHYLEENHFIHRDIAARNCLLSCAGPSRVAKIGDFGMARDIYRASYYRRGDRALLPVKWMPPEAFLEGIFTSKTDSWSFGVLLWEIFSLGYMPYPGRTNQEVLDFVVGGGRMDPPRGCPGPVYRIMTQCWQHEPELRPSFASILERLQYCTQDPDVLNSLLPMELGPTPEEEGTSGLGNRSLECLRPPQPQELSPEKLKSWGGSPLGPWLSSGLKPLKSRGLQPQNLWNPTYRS

Sequence of Serine/threonine-protein kinase pim-2 (Q9P1W9 whole entry, looked up): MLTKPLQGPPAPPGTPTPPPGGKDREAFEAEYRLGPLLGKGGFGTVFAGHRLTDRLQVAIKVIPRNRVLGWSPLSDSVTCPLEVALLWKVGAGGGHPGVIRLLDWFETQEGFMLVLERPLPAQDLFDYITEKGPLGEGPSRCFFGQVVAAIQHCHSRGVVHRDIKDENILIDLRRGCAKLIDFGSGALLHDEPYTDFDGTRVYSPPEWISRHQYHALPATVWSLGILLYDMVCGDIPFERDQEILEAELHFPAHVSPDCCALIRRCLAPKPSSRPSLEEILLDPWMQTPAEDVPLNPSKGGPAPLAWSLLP
Sequence of Ribosomal protein S6 kinase alpha-4 (Homo sapiens) (O75676 whole entry, looked up): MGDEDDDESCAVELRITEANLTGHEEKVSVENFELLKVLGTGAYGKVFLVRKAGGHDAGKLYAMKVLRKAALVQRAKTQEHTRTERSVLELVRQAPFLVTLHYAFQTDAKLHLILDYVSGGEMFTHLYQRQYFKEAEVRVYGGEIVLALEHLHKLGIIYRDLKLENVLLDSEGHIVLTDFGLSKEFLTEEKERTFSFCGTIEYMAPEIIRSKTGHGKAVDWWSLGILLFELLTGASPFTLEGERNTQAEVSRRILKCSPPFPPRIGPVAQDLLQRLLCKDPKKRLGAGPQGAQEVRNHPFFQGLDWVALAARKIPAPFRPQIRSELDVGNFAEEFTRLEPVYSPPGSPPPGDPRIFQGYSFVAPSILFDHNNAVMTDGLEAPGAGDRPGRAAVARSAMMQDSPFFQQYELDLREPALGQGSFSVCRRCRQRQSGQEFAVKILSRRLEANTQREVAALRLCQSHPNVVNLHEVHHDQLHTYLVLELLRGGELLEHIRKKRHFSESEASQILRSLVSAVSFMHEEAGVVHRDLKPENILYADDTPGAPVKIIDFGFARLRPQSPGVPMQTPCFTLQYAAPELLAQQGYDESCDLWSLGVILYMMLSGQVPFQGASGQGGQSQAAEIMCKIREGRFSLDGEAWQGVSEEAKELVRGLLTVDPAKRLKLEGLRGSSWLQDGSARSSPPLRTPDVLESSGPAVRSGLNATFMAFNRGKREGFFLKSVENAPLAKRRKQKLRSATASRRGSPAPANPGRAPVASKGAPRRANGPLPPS

Compound CCC(=O)N1CCN(c2ccc(-n3c(=O)ccc4cnc5ccc(-c6cnc7ccccc7c6)cc5c43)cc2C(F)(F)F)CC1 has a % of control [1] of 62%.

In the case of O[C@H]1CC[C@H](Nc2ncc3nc(Nc4c(F)cc(F)cc4F)n([C@H]4CCOC4)c3n2)CC1, the % of control [2] is reported as 88%.

CN(C)CCOc1ccc(-c2nc(-c3ccncc3)c(-c3ccc4c(c3)CC/C4=N\O)[nH]2)cc1 gave a % of control [3] of 100%.

Compound Cc1cc(F)c(C(=O)Nc2cccc(-c3nncn3C(C)C)n2)cc1-n1cnc(C2CC2)c1 has a % of control [4] of 100%.

Work on Cn1cc(-n2cnc3c(NCc4nc5cc(Cl)c(Cl)cc5[nH]4)nc(N4CCOCC4)nc32)cn1 yielded a % of control [5] of 3.23%.
